From the Kinase Knowledgebase extract (Sharma et al. 2016)

Molecular target: PIK3CA (human) (UniProt P42336)
Test: Inhibition of PIK3CA Kinase Activity

Sequence of PIK3CA (human) (P42336 whole entry, looked up): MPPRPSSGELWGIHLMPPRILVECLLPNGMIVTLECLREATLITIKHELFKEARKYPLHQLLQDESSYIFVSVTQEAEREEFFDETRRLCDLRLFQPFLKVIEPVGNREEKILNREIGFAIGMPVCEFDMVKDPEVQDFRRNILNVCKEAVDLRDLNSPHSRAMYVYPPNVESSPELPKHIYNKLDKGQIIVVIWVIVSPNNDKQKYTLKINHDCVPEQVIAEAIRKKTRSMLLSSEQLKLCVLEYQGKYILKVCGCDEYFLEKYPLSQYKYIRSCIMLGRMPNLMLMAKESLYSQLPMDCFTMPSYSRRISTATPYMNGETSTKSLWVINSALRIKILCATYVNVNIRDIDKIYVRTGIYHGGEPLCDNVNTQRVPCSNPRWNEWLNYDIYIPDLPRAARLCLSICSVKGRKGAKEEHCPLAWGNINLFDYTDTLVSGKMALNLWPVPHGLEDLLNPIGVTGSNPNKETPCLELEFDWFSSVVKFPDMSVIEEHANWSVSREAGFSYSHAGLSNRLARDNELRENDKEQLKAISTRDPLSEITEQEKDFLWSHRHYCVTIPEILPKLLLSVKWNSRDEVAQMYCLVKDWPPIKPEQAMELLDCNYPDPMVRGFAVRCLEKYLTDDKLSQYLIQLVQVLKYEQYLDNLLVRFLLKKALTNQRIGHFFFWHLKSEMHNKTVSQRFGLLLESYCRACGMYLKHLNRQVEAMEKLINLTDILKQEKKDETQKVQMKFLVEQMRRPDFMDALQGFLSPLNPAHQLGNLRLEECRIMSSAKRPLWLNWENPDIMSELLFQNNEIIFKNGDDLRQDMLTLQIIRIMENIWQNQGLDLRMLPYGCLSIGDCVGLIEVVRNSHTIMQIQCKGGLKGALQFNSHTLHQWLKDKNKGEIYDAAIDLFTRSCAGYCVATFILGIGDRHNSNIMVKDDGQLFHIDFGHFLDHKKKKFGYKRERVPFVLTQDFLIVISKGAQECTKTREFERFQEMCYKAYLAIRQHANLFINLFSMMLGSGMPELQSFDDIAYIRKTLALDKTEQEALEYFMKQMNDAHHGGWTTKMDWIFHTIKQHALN

SMILES	IC50 [µM]
CCCCN1CCC(n2cnc3c(-c4cccc(O)c4)nc(N4CCOCC4)nc32)CC1	< 1
CS(=O)(=O)Nc1ccc(Cn2cnc3c(-c4cccc(O)c4)nc(N4CCOCC4)nc32)cc1	< 1
Nc1ncc(-c2nc(N3CCOCC3)nc3c2ncn3-c2ccccc2)cn1	< 1
CCN(CC)CCn1cnc2c(-c3cccc(O)c3)nc(N3CCOCC3)nc21	< 1
CCC(C)n1c(C)nc2c(-c3cccc(O)c3)nc(N3CCOCC3)nc21 (stereo unspecified)	< 1
O=C(Cn1cnc2c(-c3cccc(O)c3)nc(N3CCOCC3)nc21)Nc1ccccc1	< 1
CC(=O)Nc1ccc(Cn2cnc3c(-c4cccc(O)c4)nc(N4CCOCC4)nc32)cc1	< 1
CCC(C)n1cnc2c(-c3cccc(O)c3)nc(N3CCOCC3)nc21 (stereo unspecified)	< 1
CCCCNc1nc2c(-c3cccc(O)c3)nc(N3CCOCC3)nc2n1C(C)CC (stereo unspecified)	< 1
CC(C)n1cnc2c(-c3cccc4[nH]ccc34)nc(N3CCOCC3)nc21	< 1
O=C(Cn1cnc2c(-c3cccc(O)c3)nc(N3CCOCC3)nc21)N1CCCC1	< 1
O=[N+]([O-])c1cccc(Cn2cnc3c(-c4cccc(O)c4)nc(N4CCOCC4)nc32)c1	< 1
Nc1ncc(-c2nc(N3CCOCC3)nc3c2ncn3C2CCN(C(=O)c3ccccc3)C2)cn1 (stereo unspecified)	< 1
COCC(C)n1cnc2c(-c3cccc4[nH]ccc34)nc(N3CCOCC3)nc21 (stereo unspecified)	< 1
Oc1cccc(-c2nc(N3CCOCC3)nc3c2ncn3C2CCCCO2)c1 (stereo unspecified)	< 1
COc1nc(N)ncc1-c1nc(N2CCOCC2)nc2c1ncn2C(C)C1CC1 (stereo unspecified)	< 1
N#Cc1cccc(Cn2cnc3c(-c4cccc(O)c4)nc(N4CCOCC4)nc32)c1	< 1
c1cc(-c2nc(N3CCOCC3)nc3c2ncn3CCC2OCCCO2)c2cc[nH]c2c1	< 1
CC(C)(C)OC(=O)N1CCC(n2cnc3c(-c4cccc(O)c4)nc(N4CCOCC4)nc32)CC1	< 1
Oc1cccc(-c2nc(N3CCOCC3)nc3c2ncn3Cc2cc(F)cc(F)c2)c1	< 1
OCc1cccc(-c2nc(N3CCOCC3)nc3c2ncn3Cc2ccccc2)c1	< 1
CN1CCN(C(=O)Cn2cnc3c(-c4cccc(O)c4)nc(N4CCOCC4)nc32)CC1	< 1
CC1CCC(n2cnc3c(-c4cccc(O)c4)nc(N4CCOCC4)nc32)CC1 (stereo unspecified)	< 1
C=CCCn1cnc2c(-c3cccc(O)c3)nc(N3CCOCC3)nc21	< 1

SMILES	IC50 [µM]
CCC(C)n1c(SC)nc2c(-c3cccc(O)c3)nc(N3CCOCC3)nc21 (stereo unspecified)	< 1
Nc1ncc(-c2nc(N3CCOCC3)nc3c2ncn3C2CCCC2)cn1	< 1
CCC(C)n1cnc2c(-c3cccc4[nH]ccc34)nc(N3CCOCC3)nc21 (stereo unspecified)	< 1
CC(=O)Nc1cccc(Cn2cnc3c(-c4cccc(O)c4)nc(N4CCOCC4)nc32)c1	< 1
CC(C)(C)CC(=O)N1CCC(n2cnc3c(-c4cccc5[nH]ccc45)nc(N4CCOCC4)nc32)CC1	< 1
Nc1ccc(-c2nc(N3CCOCC3)nc3c2ncn3Cc2cccc([N+](=O)[O-])c2)cn1	< 1
Oc1cccc(-c2nc(N3CCOCC3)nc3c2ncn3C2CCCC2)c1	< 1
CCC(C#N)n1cnc2c(-c3cccc4[nH]ccc34)nc(N3CCOCC3)nc21 (stereo unspecified)	< 1
COCC(C)n1cnc2c(-c3cnc(N)nc3OC)nc(N3CCOCC3)nc21 (stereo unspecified)	< 1
COCCn1cnc2c(-c3cccc4[nH]ccc34)nc(N3CCOCC3)nc21	< 1
CS(=O)(=O)N1CCN(CCn2cnc3c(-c4cccc(O)c4)nc(N4CCOCC4)nc32)CC1	< 1
Oc1cccc(-c2nc(N3CCOCC3)nc3c2ncn3C2CCOC2)c1 (stereo unspecified)	< 1
CCNc1nc2c(-c3cccc(O)c3)nc(N3CCOCC3)nc2n1C(C)CC (stereo unspecified)	< 1
Nc1ncc(-c2nc(N3CCOCC3)nc3c2ncn3C2CCOC2)cn1 (stereo unspecified)	< 1
CC(C)Cn1cnc2c(-c3cccc4[nH]ccc34)nc(N3CCOCC3)nc21	< 1
CC(C)C(C)n1cnc2c(-c3ccc(N)nc3)nc(N3CCOCC3)nc21 (stereo unspecified)	< 1
COCC(C)n1cnc2c(-c3cnc(N)nc3)nc(N3CCOCC3)nc21 (stereo unspecified)	< 1
COCC(C)n1cnc2c(-c3ccc(N)nc3)nc(N3CCOCC3)nc21 (stereo unspecified)	< 1
CCC(C)n1c(N2CCCC2)nc2c(-c3cccc(O)c3)nc(N3CCOCC3)nc21 (stereo unspecified)	< 1
CC1CCC(n2cnc3c(-c4cnc(N)nc4)nc(N4CCOCC4)nc32)CC1 (stereo unspecified)	< 1
Cc1cccc(-n2cnc3c(-c4cccc(O)c4)nc(N4CCOCC4)nc32)c1	< 1
CC(c1ccccc1)n1cnc2c(-c3cccc(O)c3)nc(N3CCOCC3)nc21 (stereo unspecified)	< 1
O=C(Cn1cnc2c(-c3cccc(O)c3)nc(N3CCOCC3)nc21)NC1CC1	< 1
Nc1ccc(-c2nc(N3CCOCC3)nc3c2ncn3C2CCCC2)cn1	< 1

The remaining lines, values ahead:

IC50 [µM]	SMILES
< 1	CC(c1ccccc1)n1cnc2c(-c3cnc(N)nc3)nc(N3CCOCC3)nc21 (stereo unspecified)
< 1	COc1cc(Cn2cnc3c(-c4cccc(O)c4)nc(N4CCOCC4)nc32)cc(OC)c1
< 1	CC(C)NC(=O)Cn1cnc2c(-c3cccc(O)c3)nc(N3CCOCC3)nc21
< 1	Oc1cc(F)cc(-c2nc(N3CCOCC3)nc3c2ncn3Cc2ccccc2)c1
< 1	O=C(CCN1CCCCC1)N1CCC(n2cnc3c(-c4cccc5[nH]ccc45)nc(N4CCOCC4)nc32)CC1
< 1	CCC(C)n1c(NCCOC)nc2c(-c3cccc(O)c3)nc(N3CCOCC3)nc21 (stereo unspecified)
< 1	CCC(C)n1c(N(C)C)nc2c(-c3cccc(O)c3)nc(N3CCOCC3)nc21 (stereo unspecified)
< 1	CCC(C)n1cnc2c(-c3cccc4[nH]ncc34)nc(N3CCOCC3)nc21 (stereo unspecified)
< 1	Nc1ncc(-c2nc(N3CCOCC3)nc3c2ncn3C2Cc3ccccc3C2)cn1
< 1	CCC(C)n1cnc2c(-c3cnc(N)nc3C)nc(N3CCOCC3)nc21 (stereo unspecified)
< 1	CCSc1nc2c(-c3cccc(O)c3)nc(N3CCOCC3)nc2n1C(C)CC (stereo unspecified)
< 1	C#CCn1cnc2c(-c3cccc(O)c3)nc(N3CCOCC3)nc21
< 1	CS(=O)(=O)N1CCN(C(=O)Cn2cnc3c(-c4cccc(O)c4)nc(N4CCOCC4)nc32)CC1
< 1	Oc1cccc(-c2nc(N3CCOCC3)nc3c2ncn3CCN2CCCC2)c1
< 1	CCC(C)n1cnc2c(-c3cnc(N)nc3)nc(N3CCOC[C@@H]3C)nc21 (stereo partly specified)
< 1	COc1ccc(Cn2cnc3c(-c4cccc(O)c4)nc(N4CCOCC4)nc32)cc1
< 1	O=[N+]([O-])c1ccc(Cn2cnc3c(-c4cccc(O)c4)nc(N4CCOCC4)nc32)cc1
< 1	c1cc(-c2nc(N3CCOCC3)nc3c2ncn3CC2CC2)c2cc[nH]c2c1
< 1	O=C(Cn1cnc2c(-c3cccc(O)c3)nc(N3CCOCC3)nc21)N1CCOCC1
< 1	Oc1cccc(-c2nc(N3CCOCC3)nc3c2ncn3Cc2cccc(F)c2)c1
< 1	CCC(C)n1c(-c2ccccc2)nc2c(-c3cccc(O)c3)nc(N3CCOCC3)nc21 (stereo unspecified)
< 1	CC(C)Cn1cnc2c(-c3cccc(O)c3)nc(N3CCOCC3)nc21

IC50 [µM]	SMILES
< 1	Oc1cccc(-c2nc(N3CCOCC3)nc3c2ncn3Cc2c(F)cccc2F)c1
< 1	CC(C)C(C)n1cnc2c(-c3cnc(N)nc3)nc(N3CCOCC3)nc21 (stereo unspecified)
< 1	CCC(C)n1cnc2c(-c3cncnc3)nc(N3CCOCC3)nc21 (stereo unspecified)
< 1	CCC(C#N)n1cnc2c(-c3cnc(N)nc3)nc(N3CCOCC3)nc21 (stereo unspecified)
< 1	Oc1cccc(-c2nc(N3CCOCC3)nc3[nH]c(Br)nc23)c1
< 1	c1cc(-c2nc(N3CCOCC3)nc3c2ncn3C2CCCC2)c2cc[nH]c2c1
< 1	CC(C)(C)OC(=O)N1CCC(n2cnc3c(-c4cnc(N)nc4)nc(N4CCOCC4)nc32)CC1
< 1	c1ccc(Cn2cnc3c(-c4cncnc4)nc(N4CCOCC4)nc32)cc1
< 1	Nc1cccc(Cn2cnc3c(-c4cccc(O)c4)nc(N4CCOCC4)nc32)c1
< 1	CCC(C)n1c(NC(C)C)nc2c(-c3cccc(O)c3)nc(N3CCOCC3)nc21 (stereo unspecified)
< 1	Oc1cccc(-c2nc(N3CCOCC3)nc3c2ncn3CCOc2ccccc2)c1
< 1	CCC(CC)n1cnc2c(-c3ccc(N)nc3)nc(N3CCOCC3)nc21
< 1	CCc1nc2c(-c3cccc(O)c3)nc(N3CCOCC3)nc2n1C(C)CC (stereo unspecified)
< 1	CC1CCC(n2cnc3c(-c4cnc(N)nc4)nc(N4CCOCC4)nc32)C1 (stereo unspecified)
< 1	COCC(C)n1cnc2c(-c3cccc(O)c3)nc(N3CCOCC3)nc21 (stereo unspecified)
< 1	Nc1ncc(-c2nc(N3CCOCC3)nc3c2ncn3C2CCc3ccccc3C2)cn1 (stereo unspecified)
< 1	Cc1nc(N)ncc1-c1nc(N2CCOCC2)nc2c1ncn2C(C)c1ccccc1 (stereo unspecified)
< 1	CCC(C)n1cnc2c(-c3cnc(NC)nc3)nc(N3CCOCC3)nc21 (stereo unspecified)
< 1	c1cc(-c2nc(N3CCOCC3)nc3c2ncn3C2CCNCC2)c2cc[nH]c2c1
< 1	c1cc(-c2nc(N3CCOCC3)nc3c2ncn3CC2CCCCC2)c2cc[nH]c2c1
< 1	O=C(CCN1CCCCC1)Nc1ccc(Cn2cnc3c(-c4cccc(O)c4)nc(N4CCOCC4)nc32)cc1
